The values that follow come from ChEMBL document CHEMBL3822442, “Synthesis and Pharmacological Characterization of Novel Glucagon-like Peptide-2 (GLP-2) Analogues with Low Systemic Clearance” (J Med Chem, 2016).

Structures are written as SMILES.

By EC50 is commonly meant the concentration at which the effect is half-maximal. What is called clearance is a measure of how efficiently the substance is removed, as volume per time. A low value points to a low capacity for elimination.

The target in data set [1] is Glucagon-like peptide 1 receptor (Homo sapiens, UniProt P43220). The data set can be described thus: Agonist activity at human GLP1R expressed in HEK293 cells after 5 hrs by luciferase reporter gene assay. It is filed as cell-based.
Chain of Glucagon-like peptide 1 receptor (P43220 whole entry): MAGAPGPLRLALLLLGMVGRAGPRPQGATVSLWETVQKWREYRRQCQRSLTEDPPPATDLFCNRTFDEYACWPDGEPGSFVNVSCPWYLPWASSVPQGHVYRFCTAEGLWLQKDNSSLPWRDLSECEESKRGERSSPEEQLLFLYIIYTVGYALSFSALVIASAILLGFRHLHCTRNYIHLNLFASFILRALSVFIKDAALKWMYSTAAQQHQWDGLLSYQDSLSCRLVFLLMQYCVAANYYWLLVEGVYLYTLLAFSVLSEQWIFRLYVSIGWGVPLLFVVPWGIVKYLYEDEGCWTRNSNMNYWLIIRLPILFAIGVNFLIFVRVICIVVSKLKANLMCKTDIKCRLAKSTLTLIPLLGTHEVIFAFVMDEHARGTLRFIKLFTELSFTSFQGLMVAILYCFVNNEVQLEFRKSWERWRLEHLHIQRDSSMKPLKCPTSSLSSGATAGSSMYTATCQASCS
Data set [2] has as its target T1, Glucagon-like peptide 2 receptor (Homo sapiens, UniProt O95838).
T1 sequence (O95838 whole entry): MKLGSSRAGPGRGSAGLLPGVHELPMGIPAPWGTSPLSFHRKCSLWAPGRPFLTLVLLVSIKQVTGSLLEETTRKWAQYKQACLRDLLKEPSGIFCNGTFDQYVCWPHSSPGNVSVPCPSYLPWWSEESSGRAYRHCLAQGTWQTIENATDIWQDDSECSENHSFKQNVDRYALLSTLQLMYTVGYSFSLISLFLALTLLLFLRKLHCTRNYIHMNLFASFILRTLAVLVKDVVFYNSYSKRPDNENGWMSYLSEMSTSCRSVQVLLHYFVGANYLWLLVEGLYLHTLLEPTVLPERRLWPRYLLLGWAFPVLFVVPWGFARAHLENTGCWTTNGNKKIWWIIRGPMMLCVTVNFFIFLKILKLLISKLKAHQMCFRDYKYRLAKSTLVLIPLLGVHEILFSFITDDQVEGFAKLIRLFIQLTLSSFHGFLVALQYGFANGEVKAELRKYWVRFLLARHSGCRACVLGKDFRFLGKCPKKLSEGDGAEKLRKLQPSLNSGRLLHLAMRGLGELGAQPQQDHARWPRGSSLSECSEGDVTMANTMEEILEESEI
The data set can be described thus: Agonist activity at human GLP2R expressed in HEK293 cells after 5 hrs by luciferase reporter gene assay. It is filed as cell-based. A general note: In a reporter assay the amount or activity of a reporter protein is the signal.

A further data set relates to HEK293. The data set can be described thus: Selectivity ratio of EC50 for human GLP1R expressed in HEK293 cells to EC50 for human GLP2R expressed in HEK293. It is filed as cell-based.
A short description of data set [3]: Systemic clearance in Sprague-Dawley rat at 0.2 mg/kg, iv through cassette dosing measured up to 300 mins by LC/MS/MS analysis. In kind it is ADME, organism-based. Particulars: in vivo.

As to `CCCCC(NC(=O)[C@H](CCC(=O)O)NC(=O)[C@H](CC(=O)O)NC(=O)[C@H](CO)NC(=O)[C@H](Cc1ccccc1)NC(=O)[C@H](CO)NC(=O)CNC(=O)[C@H](CC(=O)O)NC(=O)CNC(=O)[C@@H](N)Cc1cnc[nH]1)C(=O)N[C@H](Cc1ccccc1)C(=O)N[C@H](C(=O)N[C@H](C(=O)N[C@@H](CC(C)C)C(=O)N[C@@H](CC(=O)O)C(=O)N[C@@H](Cc1ccccc1)C(=O)N[C@@H](CC(C)C)C(=O)N[C@@H](C)C(=O)N[C@@H](C)C(=O)N[C@@H](CCCNC(=N)N)C(=O)N[C@@H](CC(=O)O)C(=O)N[C@@H](Cc1ccccc1)C(=O)N[C@H](C(=O)N[C@@H](CC(N)=O)C(=O)N[C@@H](Cc1c[nH]c2ccccc12)C(=O)N[C@@H](CC(C)C)C(=O)N[C@H](C(=O)N[C@@H](CCC(N)=O)C(=O)N[C@H](C(=O)N[C@@H](CCCCN)C(=O)N[C@H](C(=O)N[C@H](C(=O)N[C@@H](CC(=O)O)C(=O)O)[C@@H](C)O)[C@@H](C)CC)[C@@H](C)O)[C@@H](C)CC)[C@@H](C)CC)[C@@H](C)CC)[C@@H](C)O` (stereo partly drawn), the EC50 was > 1000 nM in data set [1] and 0.06 nM in data set [2]. Further, in the data set on HEK293, the Ratio EC50 is > 16000. The clearance in data set [3] came to 0.15 mL/min/kg.
For `CCCCC(NC(=O)[C@H](CCC(=O)O)NC(=O)[C@H](CC(=O)O)NC(=O)[C@H](CO)NC(=O)[C@H](Cc1ccccc1)NC(=O)[C@H](CO)NC(=O)CNC(=O)[C@H](CC(=O)O)NC(=O)CNC(=O)[C@@H](N)Cc1cnc[nH]1)C(=O)N[C@H](Cc1cccc(Cl)c1)C(=O)N[C@H](C(=O)N[C@H](C(=O)N[C@@H](CC(C)C)C(=O)N[C@@H](CC(=O)O)C(=O)N[C@@H](Cc1ccccc1)C(=O)N[C@@H](CC(C)C)C(=O)N[C@@H](C)C(=O)N[C@@H](C)C(=O)N[C@@H](CCCNC(=N)N)C(=O)N[C@@H](CC(=O)O)C(=O)N[C@@H](Cc1ccccc1)C(=O)N[C@H](C(=O)N[C@@H](CC(N)=O)C(=O)N[C@@H](Cc1c[nH]c2ccccc12)C(=O)N[C@@H](CC(C)C)C(=O)N[C@H](C(=O)N[C@@H](CCC(N)=O)C(=O)N[C@H](C(=O)N[C@@H](CCCCN)C(=O)N[C@H](C(=O)N[C@H](C(=O)N[C@@H](CC(=O)O)C(N)=O)[C@@H](C)O)[C@@H](C)CC)[C@@H](C)O)[C@@H](C)CC)[C@@H](C)CC)[C@@H](C)CC)[C@@H](C)O` (stereo partly drawn) the same measures were > 1000 nM, 0.13 nM, > 7600 and 0.12 mL/min/kg.
Consider `CCCCC(NC(=O)[C@H](CCC(=O)O)NC(=O)[C@H](CC(=O)O)NC(=O)[C@H](CO)NC(=O)[C@H](Cc1ccccc1)NC(=O)[C@H](CO)NC(=O)CNC(=O)[C@H](CC(=O)O)NC(=O)CNC(=O)[C@@H](N)Cc1cnc[nH]1)C(=O)N[C@H](Cc1ccccc1)C(=O)N[C@H](C(=O)N[C@H](C(=O)N[C@@H](CC(C)C)C(=O)N[C@@H](CC(=O)O)C(=O)N[C@@H](Cc1ccc(O)cc1)C(=O)N[C@@H](CC(C)C)C(=O)N[C@@H](C)C(=O)N[C@@H](C)C(=O)N[C@@H](CCCNC(=N)N)C(=O)N[C@@H](CC(=O)O)C(=O)N[C@@H](Cc1ccccc1)C(=O)N[C@H](C(=O)N[C@@H](CC(N)=O)C(=O)N[C@@H](Cc1c[nH]c2ccccc12)C(=O)N[C@@H](CC(C)C)C(=O)N[C@H](C(=O)N[C@@H](CCC(N)=O)C(=O)N[C@H](C(=O)N[C@@H](CCCCN)C(N)=O)[C@@H](C)O)[C@@H](C)CC)[C@@H](C)CC)[C@@H](C)CC)[C@@H](C)O` (stereo partly drawn), for which the figures for the EC50 in data set [1] and in data set [2] were 90 nM and 0.07 nM, respectively. The Ratio EC50 in the data set on HEK293 was determined as 1200. In addition, the clearance in data set [3] is 0.48 mL/min/kg.
For `CCCCC(NC(=O)[C@@H](CCC(=O)O)NC(=O)[C@@H](CC(=O)O)NC(=O)[C@@H](CO)NC(=O)[C@@H](Cc1ccccc1)NC(=O)[C@@H](CO)NC(=O)CNC(=O)[C@@H](CC(=O)O)NC(=O)CNC(=O)[C@@H](N)Cc1cnc[nH]1)C(=O)N[C@@H](Cc1cccc(Cl)c1)C(=O)N[C@@H](C(=O)N[C@@H](C(=O)N[C@H](CC(C)C)C(=O)N[C@H](CC(=O)O)C(=O)NC(Cc1ccc2ccccc2c1)C(=O)N[C@@H](CC(C)C)C(=O)N[C@@H](C)C(=O)N[C@@H](C)C(=O)N[C@@H](CCCNC(=N)N)C(=O)N[C@@H](CC(=O)O)C(=O)N[C@@H](Cc1ccccc1)C(=O)N[C@H](C(=O)N[C@@H](CC(N)=O)C(=O)N[C@H](Cc1c[nH]c2ccccc12)C(=O)N[C@H](CC(C)C)C(=O)N[C@@H](C(=O)N[C@H](CCC(N)=O)C(=O)N[C@@H](C(=O)N[C@H](CCCCN)C(=O)N[C@@H](C(=O)N[C@@H](C(=O)N[C@@H](CC(=O)O)C(N)=O)[C@H](C)O)[C@@H](C)CC)[C@H](C)O)[C@@H](C)CC)[C@H](C)CC)[C@@H](C)CC)[C@H](C)O` (stereo partly drawn) the same measures were > 1000 nM, 0.51 nM, > 1900 and 0.11 mL/min/kg.
On to `CCCCC(NC(=O)[C@H](CCC(=O)O)NC(=O)[C@H](CC(=O)O)NC(=O)[C@H](CO)NC(=O)[C@H](Cc1ccccc1)NC(=O)[C@H](CO)NC(=O)CNC(=O)[C@H](CC(=O)O)NC(=O)CNC(=O)[C@@H](N)Cc1cnc[nH]1)C(=O)N[C@H](Cc1ccccc1)C(=O)N[C@H](C(=O)N[C@H](C(=O)N[C@@H](CC(C)C)C(=O)N[C@@H](CC(=O)O)C(=O)N[C@@H](CC(C)C)C(=O)N[C@@H](CC(C)C)C(=O)N[C@@H](C)C(=O)N[C@@H](C)C(=O)N[C@@H](CCCNC(=N)N)C(=O)N[C@@H](CC(=O)O)C(=O)N[C@@H](Cc1ccccc1)C(=O)N[C@H](C(=O)N[C@@H](CC(N)=O)C(=O)N[C@@H](Cc1c[nH]c2ccccc12)C(=O)N[C@@H](CC(C)C)C(=O)N[C@H](C(=O)N[C@@H](CCC(N)=O)C(=O)N[C@H](C(=O)N[C@@H](CCCCN)C(=O)N[C@H](C(=O)N[C@H](C(=O)N[C@@H](CC(=O)O)C(=O)NCCCOCCOCCOCCCNC(=O)COCC(N)=O)[C@@H](C)O)[C@@H](C)CC)[C@@H](C)O)[C@@H](C)CC)[C@@H](C)CC)[C@@H](C)CC)[C@@H](C)O` (stereo partly drawn), for which the EC50 in data set [1] was > 1000 nM; in data set [2], 0.03 nM. Further, in the data set with HEK293, the Ratio EC50 was > 33000. Further, the clearance in data set [3] stood at 0.28 mL/min/kg.
In the same order, the values of `CCCCC(NC(=O)[C@H](CCC(=O)O)NC(=O)[C@H](CC(=O)O)NC(=O)[C@H](CO)NC(=O)[C@H](Cc1ccccc1)NC(=O)[C@H](CO)NC(=O)CNC(=O)[C@H](CC(=O)O)NC(=O)CNC(=O)[C@@H](N)Cc1cnc[nH]1)C(=O)N[C@H](Cc1ccccc1)C(=O)N[C@H](C(=O)N[C@H](C(=O)N[C@@H](CC(C)C)C(=O)N[C@@H](CC(=O)O)C(=O)N[C@@H](CC(C)C)C(=O)N[C@@H](CC(C)C)C(=O)N[C@@H](C)C(=O)N[C@H](C(=O)N[C@@H](CCCNC(=N)N)C(=O)N[C@@H](CC(=O)O)C(=O)N[C@@H](Cc1ccccc1)C(=O)N[C@H](C(=O)N[C@@H](CC(N)=O)C(=O)N[C@@H](Cc1c[nH]c2ccccc12)C(=O)N[C@@H](CC(C)C)C(=O)N[C@H](C(=O)N[C@@H](CCC(N)=O)C(=O)N[C@H](C(=O)N[C@@H](CCCCN)C(N)=O)[C@@H](C)O)[C@@H](C)CC)[C@@H](C)CC)[C@@H](C)O)[C@@H](C)CC)[C@@H](C)O` (stereo partly drawn) are 130 nM, 0.04 nM, 3200 and 0.49 mL/min/kg.
For `CCCCC(NC(=O)[C@H](CCC(=O)O)NC(=O)[C@H](CC(=O)O)NC(=O)[C@H](CO)NC(=O)[C@H](Cc1ccccc1)NC(=O)[C@H](CO)NC(=O)CNC(=O)[C@H](CC(=O)O)NC(=O)CNC(=O)[C@@H](N)Cc1cnc[nH]1)C(=O)N[C@H](Cc1ccccc1)C(=O)N[C@H](C(=O)N[C@H](C(=O)N[C@@H](CC(C)C)C(=O)N[C@@H](CC(=O)O)C(=O)N[C@@H](Cc1ccccc1)C(=O)N[C@@H](CC(C)C)C(=O)N[C@@H](C)C(=O)N[C@@H](C)C(=O)N[C@@H](CCCNC(=N)N)C(=O)N[C@@H](CC(=O)O)C(=O)N[C@@H](Cc1ccccc1)C(=O)N[C@H](C(=O)N[C@@H](CC(N)=O)C(=O)N[C@@H](Cc1c[nH]c2ccccc12)C(=O)N[C@@H](CC(C)C)C(=O)N[C@H](C(=O)N[C@@H](CCC(N)=O)C(=O)N[C@H](C(=O)N[C@@H](CCCCN)C(=O)N[C@H](C(=O)N[C@H](C(=O)N[C@@H](CC(=O)O)C(N)=O)[C@@H](C)O)[C@@H](C)CC)[C@@H](C)O)[C@@H](C)CC)[C@@H](C)CC)[C@@H](C)CC)[C@@H](C)O` (stereo partly drawn) the same measures were > 1000 nM, 0.06 nM, > 16000 and 0.24 mL/min/kg.
